# Measured values: ChEMBL document CHEMBL5291721, “A preclinical secondary pharmacology resource illuminates target-adverse drug reaction associations of marketed drugs” (Nat Commun, 2023)
# Tests used:
# Progesterone receptor = biological target: T1, Progesterone receptor (Homo sapiens, UniProt P06401)
# T1 sequence (P06401 whole entry): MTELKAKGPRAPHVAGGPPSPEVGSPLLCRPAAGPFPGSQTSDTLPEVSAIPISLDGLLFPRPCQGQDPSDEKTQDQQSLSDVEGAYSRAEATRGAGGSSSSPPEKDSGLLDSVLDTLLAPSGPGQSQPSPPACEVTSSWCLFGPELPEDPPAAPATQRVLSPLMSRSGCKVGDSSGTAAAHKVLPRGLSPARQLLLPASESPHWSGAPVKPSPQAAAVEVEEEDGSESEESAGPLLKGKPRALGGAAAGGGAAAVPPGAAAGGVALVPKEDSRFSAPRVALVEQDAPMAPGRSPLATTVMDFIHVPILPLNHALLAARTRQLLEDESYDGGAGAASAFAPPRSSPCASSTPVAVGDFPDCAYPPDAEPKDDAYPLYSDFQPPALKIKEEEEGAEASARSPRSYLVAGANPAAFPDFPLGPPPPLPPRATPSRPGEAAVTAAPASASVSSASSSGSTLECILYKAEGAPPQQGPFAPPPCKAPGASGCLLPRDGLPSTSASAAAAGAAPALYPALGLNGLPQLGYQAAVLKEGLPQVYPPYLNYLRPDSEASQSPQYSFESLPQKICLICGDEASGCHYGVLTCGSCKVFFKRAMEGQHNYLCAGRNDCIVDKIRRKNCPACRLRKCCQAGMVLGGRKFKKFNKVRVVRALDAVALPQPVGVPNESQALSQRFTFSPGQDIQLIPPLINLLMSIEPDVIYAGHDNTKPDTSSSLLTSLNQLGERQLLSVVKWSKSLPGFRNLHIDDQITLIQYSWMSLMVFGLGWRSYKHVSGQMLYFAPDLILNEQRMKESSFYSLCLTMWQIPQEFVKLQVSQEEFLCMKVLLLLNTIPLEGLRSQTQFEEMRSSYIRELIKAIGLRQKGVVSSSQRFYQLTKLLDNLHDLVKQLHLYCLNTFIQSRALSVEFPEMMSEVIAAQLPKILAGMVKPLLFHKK
# [1] = biological target: Gamma-aminobutyric acid receptor subunit alpha-1/alpha-2/beta-2/gamma-2 (Homo sapiens, UniProt P14867+P18507+P47869+P47870); type: functional, cell-based
# Gamma-aminobutyric acid receptor subunit alpha-1/alpha-2/beta-2/gamma-2, sequence (P14867 whole entry): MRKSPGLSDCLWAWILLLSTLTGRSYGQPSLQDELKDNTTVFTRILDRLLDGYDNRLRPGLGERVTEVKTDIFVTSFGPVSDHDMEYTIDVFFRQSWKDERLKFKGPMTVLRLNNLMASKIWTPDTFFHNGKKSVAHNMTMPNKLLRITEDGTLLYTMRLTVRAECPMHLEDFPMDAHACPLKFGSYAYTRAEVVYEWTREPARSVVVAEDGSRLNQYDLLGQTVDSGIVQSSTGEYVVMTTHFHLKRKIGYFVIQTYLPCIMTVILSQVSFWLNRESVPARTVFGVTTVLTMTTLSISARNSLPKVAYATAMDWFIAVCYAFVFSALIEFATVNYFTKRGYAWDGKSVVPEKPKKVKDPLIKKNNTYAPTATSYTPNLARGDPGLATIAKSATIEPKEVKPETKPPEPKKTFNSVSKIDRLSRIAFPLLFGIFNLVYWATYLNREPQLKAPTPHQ
# Gamma-aminobutyric acid receptor subunit alpha-1/alpha-2/beta-2/gamma-2, sequence (P47870 whole entry): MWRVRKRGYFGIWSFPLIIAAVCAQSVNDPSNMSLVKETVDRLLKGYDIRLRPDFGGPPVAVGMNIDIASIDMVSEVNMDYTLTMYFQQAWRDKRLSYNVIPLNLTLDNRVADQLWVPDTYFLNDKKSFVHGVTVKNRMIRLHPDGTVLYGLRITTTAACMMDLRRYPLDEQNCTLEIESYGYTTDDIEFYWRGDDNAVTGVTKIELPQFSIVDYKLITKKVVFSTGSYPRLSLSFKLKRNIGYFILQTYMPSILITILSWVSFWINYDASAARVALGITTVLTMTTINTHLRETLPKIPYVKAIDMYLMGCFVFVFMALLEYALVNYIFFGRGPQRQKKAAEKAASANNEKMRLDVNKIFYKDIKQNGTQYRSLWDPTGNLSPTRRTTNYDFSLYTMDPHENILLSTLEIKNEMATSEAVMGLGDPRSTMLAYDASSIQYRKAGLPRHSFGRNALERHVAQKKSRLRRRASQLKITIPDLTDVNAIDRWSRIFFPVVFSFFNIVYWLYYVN
# Gamma-aminobutyric acid receptor subunit alpha-1/alpha-2/beta-2/gamma-2, sequence (P18507 whole entry): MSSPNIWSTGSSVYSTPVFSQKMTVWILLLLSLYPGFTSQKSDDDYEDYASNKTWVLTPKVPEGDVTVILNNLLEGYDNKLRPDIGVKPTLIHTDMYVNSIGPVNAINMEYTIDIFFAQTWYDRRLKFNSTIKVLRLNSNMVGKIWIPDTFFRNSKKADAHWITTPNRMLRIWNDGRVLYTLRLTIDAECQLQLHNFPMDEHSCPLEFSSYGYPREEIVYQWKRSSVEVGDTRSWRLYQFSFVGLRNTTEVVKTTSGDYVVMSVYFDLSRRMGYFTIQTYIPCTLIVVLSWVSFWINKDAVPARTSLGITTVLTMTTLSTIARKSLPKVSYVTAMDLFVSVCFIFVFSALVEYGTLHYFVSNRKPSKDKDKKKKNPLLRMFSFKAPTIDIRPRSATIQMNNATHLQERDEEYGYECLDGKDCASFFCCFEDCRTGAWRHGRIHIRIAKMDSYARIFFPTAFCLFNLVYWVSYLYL
# Gamma-aminobutyric acid receptor subunit alpha-1/alpha-2/beta-2/gamma-2, sequence (P47869 whole entry): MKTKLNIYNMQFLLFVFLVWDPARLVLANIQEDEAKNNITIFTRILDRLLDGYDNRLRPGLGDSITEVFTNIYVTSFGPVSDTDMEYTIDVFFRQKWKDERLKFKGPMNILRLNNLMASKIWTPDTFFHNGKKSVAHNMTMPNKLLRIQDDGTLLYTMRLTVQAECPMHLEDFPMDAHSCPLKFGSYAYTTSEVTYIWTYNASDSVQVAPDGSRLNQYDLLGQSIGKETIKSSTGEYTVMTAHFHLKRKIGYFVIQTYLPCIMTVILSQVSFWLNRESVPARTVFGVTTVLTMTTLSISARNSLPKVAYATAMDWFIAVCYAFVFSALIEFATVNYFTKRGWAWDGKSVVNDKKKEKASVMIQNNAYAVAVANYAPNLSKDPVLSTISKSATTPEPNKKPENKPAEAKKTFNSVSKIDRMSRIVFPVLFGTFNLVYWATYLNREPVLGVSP
# Androgen receptor [2] = biological target: T2, Androgen receptor (Rattus norvegicus, UniProt P15207); type: functional
# T2 sequence (P15207 whole entry): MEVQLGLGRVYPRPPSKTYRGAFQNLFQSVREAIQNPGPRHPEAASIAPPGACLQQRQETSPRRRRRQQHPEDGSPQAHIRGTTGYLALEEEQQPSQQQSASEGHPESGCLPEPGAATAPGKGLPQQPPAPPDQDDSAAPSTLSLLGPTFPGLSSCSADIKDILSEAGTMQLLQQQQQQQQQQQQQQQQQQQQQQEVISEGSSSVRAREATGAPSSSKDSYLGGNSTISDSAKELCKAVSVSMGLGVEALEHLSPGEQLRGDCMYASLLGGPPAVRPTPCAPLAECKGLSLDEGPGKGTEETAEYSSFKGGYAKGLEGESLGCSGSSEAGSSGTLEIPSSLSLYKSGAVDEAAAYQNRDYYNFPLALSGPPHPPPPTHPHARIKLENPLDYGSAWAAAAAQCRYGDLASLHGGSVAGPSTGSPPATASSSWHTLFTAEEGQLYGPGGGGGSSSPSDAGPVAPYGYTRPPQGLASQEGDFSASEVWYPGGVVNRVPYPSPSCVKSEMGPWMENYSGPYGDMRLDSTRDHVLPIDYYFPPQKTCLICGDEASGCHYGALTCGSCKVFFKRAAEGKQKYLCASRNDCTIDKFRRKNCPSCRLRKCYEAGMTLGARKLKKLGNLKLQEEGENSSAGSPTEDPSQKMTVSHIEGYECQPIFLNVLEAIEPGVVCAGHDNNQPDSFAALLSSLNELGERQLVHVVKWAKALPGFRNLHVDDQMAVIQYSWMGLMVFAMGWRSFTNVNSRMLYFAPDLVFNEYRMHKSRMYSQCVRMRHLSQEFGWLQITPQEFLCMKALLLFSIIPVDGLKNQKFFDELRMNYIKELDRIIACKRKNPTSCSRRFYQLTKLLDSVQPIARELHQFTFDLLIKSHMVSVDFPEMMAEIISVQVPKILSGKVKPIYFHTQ
# Androgen receptor [3] = biological target: T2, Androgen receptor; type: functional; remark: listed apart in the source
# Androgen receptor [4] = biological target: T2, Androgen receptor
# B1 bradykinin receptor = biological target: T3, B1 bradykinin receptor (Homo sapiens, UniProt P46663)
# T3 sequence (P46663 whole entry): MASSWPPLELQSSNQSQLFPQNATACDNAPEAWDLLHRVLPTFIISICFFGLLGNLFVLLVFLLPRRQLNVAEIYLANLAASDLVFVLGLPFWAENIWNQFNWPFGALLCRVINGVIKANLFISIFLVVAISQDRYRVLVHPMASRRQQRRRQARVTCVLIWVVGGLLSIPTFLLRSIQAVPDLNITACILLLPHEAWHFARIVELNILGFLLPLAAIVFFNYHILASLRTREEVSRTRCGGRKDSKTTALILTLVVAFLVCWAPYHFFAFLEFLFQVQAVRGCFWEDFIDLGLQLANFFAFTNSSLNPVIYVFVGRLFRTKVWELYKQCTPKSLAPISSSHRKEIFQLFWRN
# [5] = biological target: T4, Corticotropin-releasing factor receptor 1 (Homo sapiens, UniProt P34998)
# T4 sequence (P34998 whole entry): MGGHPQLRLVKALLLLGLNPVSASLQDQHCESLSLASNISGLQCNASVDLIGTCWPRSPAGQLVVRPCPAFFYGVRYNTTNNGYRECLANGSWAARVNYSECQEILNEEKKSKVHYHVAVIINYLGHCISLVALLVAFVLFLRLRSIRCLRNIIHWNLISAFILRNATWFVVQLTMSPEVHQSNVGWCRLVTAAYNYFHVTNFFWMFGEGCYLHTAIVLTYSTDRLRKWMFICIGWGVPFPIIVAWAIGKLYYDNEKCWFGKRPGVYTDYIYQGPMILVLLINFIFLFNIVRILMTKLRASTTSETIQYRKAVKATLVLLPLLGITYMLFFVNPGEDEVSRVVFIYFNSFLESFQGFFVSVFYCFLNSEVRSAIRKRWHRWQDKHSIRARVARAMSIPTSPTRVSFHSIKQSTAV
# Note: assay procedure not described here.
compound,measurement,setting,value
CN1CC(=O)N2[C@H](c3ccc4c(c3)OCO4)c3[nH]c4ccccc4c3C[C@@H]2C1=O,AC50,Progesterone receptor,> 30 µM
C=C1CC[C@@]2(O)[C@H]3Cc4ccc(O)c5c4[C@@]2(CCN3CC2CC2)[C@H]1O5,AC50,[1],> 30 µM
COc1ccc2c(c1)c(CC(=O)OCC(=O)O)c(C)n2C(=O)c1ccc(Cl)cc1 [ACEMETACIN],AC50,Androgen receptor [2],> 30 µM
same,AC50,Androgen receptor [3],> 30 µM
Nc1ncnc2c1ncn2[C@@H]1O[C@H](COP(=O)(O)O)[C@@H](O)[C@H]1O [ADENOSINE PHOSPHATE],AC50,[1],> 30 µM
COc1ccc2cccc(CCNC(C)=O)c2c1 [AGOMELATINE],AC50,Progesterone receptor,> 30 µM
same,AC50,Androgen receptor [4],> 30 µM
same,AC50,B1 bradykinin receptor,> 30 µM
same,AC50,[5],> 30 µM
CN1CCc2cccc3c2[C@H]1Cc1ccc(O)c(O)c1-3 [APOMORPHINE],AC50,Progesterone receptor,26 µM
same,AC50,B1 bradykinin receptor,> 30 µM
same,AC50,[5],> 30 µM
NC(CO)C(=O)NNCc1ccc(O)c(O)c1O (centres undefined) [BENSERAZIDE],AC50,Progesterone receptor,> 30 µM
same,AC50,Androgen receptor [4],> 30 µM
same,AC50,B1 bradykinin receptor,> 30 µM
same,AC50,[5],> 30 µM
CCCCN1CCCCC1C(=O)Nc1c(C)cccc1C (centres undefined) [BUPIVACAINE],AC50,Androgen receptor [2],> 30 µM
same,AC50,Androgen receptor [3],> 30 µM
CCC(C(=O)O)c1ccc(CC(C)C)cc1 (centres undefined) [BUTIBUFEN],AC50,Androgen receptor [2],> 30 µM
same,AC50,Androgen receptor [3],> 30 µM
CCCCCOC(=O)Nc1nc(=O)n([C@@H]2O[C@H](C)[C@@H](O)[C@H]2O)cc1F [CAPECITABINE],AC50,[1],> 30 µM
CCOc1cc(N)c([N+](=O)[O-])cc1C(=O)NC1CCN(CC2CC=CCC2)CC1 (centres undefined) [CINITAPRIDE],AC50,Androgen receptor [2],> 30 µM
same,AC50,Androgen receptor [3],> 30 µM
CC(C)(Oc1ccc(C2CC2(Cl)Cl)cc1)C(=O)O (centres undefined) [CIPROFIBRATE],AC50,Androgen receptor [2],> 30 µM
same,AC50,Androgen receptor [3],> 30 µM
COC(=O)[C@H]1[C@@H](OC(=O)c2ccccc2)C[C@@H]2CC[C@H]1N2C [COCAINE],AC50,Androgen receptor [2],> 30 µM
same,AC50,Androgen receptor [3],> 30 µM
CC(=O)O[C@@]12CO[C@@H]1C[C@H](O)[C@@]1(C)C(=O)[C@H](O)C3=C(C)[C@@H](OC(=O)[C@H](O)[C@@H](NC(=O)OC(C)(C)C)c4ccccc4)C[C@@](O)([C@@H](OC(=O)c4ccccc4)[C@H]21)C3(C)C [DOCETAXEL ANHYDROUS],AC50,Androgen receptor [4],> 30 µM
CN[C@@H](C)[C@H](O)c1ccccc1 [EPHEDRINE],AC50,Progesterone receptor,> 30 µM
same,AC50,B1 bradykinin receptor,> 30 µM
same,AC50,[5],> 30 µM
C#CC1(OC(N)=O)CCCCC1 [ETHINAMATE],AC50,Androgen receptor [4],> 10 µM
O=C1CN=C(c2ccccc2)c2cc(Cl)ccc2N1CC(F)(F)F [HALAZEPAM],AC50,Androgen receptor [2],> 30 µM
same,AC50,[1],> 30 µM
CCC1(C2=CCCCCC2)C(=O)NC(=O)NC1=O [HEPTABARBITAL],AC50,Androgen receptor [4],> 10 µM
C1=Cc2cccc(OCC3CNCCO3)c2C1 (centres undefined) [INDELOXAZINE],AC50,Androgen receptor [2],> 30 µM
same,AC50,Androgen receptor [3],> 30 µM
COC(=O)C1=C(C)NC(C)=C(C(=O)OC(C)C)C1c1cccc2nonc12 (centres undefined) [ISRADIPINE],AC50,Androgen receptor [4],> 30 µM
CN1CC[C@]23CCCC[C@H]2[C@H]1Cc1ccc(O)cc13 [LEVORPHANOL],AC50,Androgen receptor [4],> 10 µM
CCN1CCC[C@H]1CNC(=O)c1cc(S(N)(=O)=O)ccc1OC [LEVOSULPIRIDE],AC50,Progesterone receptor,> 30 µM
same,AC50,Androgen receptor [4],> 30 µM
CC/C=C\C/C=C\C/C=C\CCCCCCCC(=O)O [LINOLENIC ACID],AC50,[1],> 10 µM
CC1=CC(=O)c2ccccc2C1=O [MENADIONE],AC50,Androgen receptor [4],> 30 µM
Cc1cccc(C)c1NC(=O)C1CCCCN1C (centres undefined) [MEPIVACAINE],AC50,[1],> 30 µM
C[C@H]1C[C@@H]2[C@H]([C@@H](O)C[C@@]3(C)[C@H]2CC[C@]3(O)C(=O)COC(=O)CCC(=O)O)[C@@]2(C)C=CC(=O)C=C12 [METHYLPREDNISOLONE HEMISUCCINATE],AC50,[1],> 30 µM
Cc1cc(-c2ccccc2)nnc1NCCN1CCOCC1 [MINAPRINE],AC50,Progesterone receptor,> 30 µM
same,AC50,B1 bradykinin receptor,> 30 µM
same,AC50,[5],> 30 µM
CCCCC(C)(O)C/C=C/[C@H]1[C@H](O)CC(=O)[C@@H]1CCCCCCC(=O)OC (some centres undefined) [MISOPROSTOL],AC50,[1],> 30 µM
O=C(OCCN1CCOCC1)c1cccnc1Nc1cccc(C(F)(F)F)c1 [MORNIFLUMATE],AC50,Androgen receptor [2],> 30 µM
same,AC50,Androgen receptor [3],> 30 µM
COc1c(C)c2c(c(O)c1C/C=C(\C)CCC(=O)OCCN1CCOCC1)C(=O)OC2 [MYCOPHENOLATE MOFETIL],AC50,Androgen receptor [2],> 30 µM
same,AC50,Androgen receptor [3],> 30 µM
CN1CCC2=C(C1)C(c1ccccc1)c1ccccc12 (centres undefined) [PHENINDAMINE],AC50,Androgen receptor [4],> 30 µM
CC(Cc1ccccc1)NCCC(c1ccccc1)c1ccccc1 (centres undefined) [PRENYLAMINE],AC50,Progesterone receptor,> 30 µM
CCN(CC)CCOC(=O)c1ccc(N)cc1 [PROCAINE],AC50,Progesterone receptor,> 30 µM
CCCOc1ccc(C(=O)OCCN(CC)CC)cc1N [PROPARACAINE],AC50,[1],> 30 µM
Cc1nc2ccc(CN(C)c3ccc(C(=O)N[C@@H](CCC(=O)O)C(=O)O)s3)cc2c(=O)[nH]1 [RALTITREXED],AC50,Androgen receptor [2],> 30 µM
same,AC50,Androgen receptor [3],> 30 µM
C#CCN[C@@H]1CCc2ccccc21 [RASAGILINE],AC50,Androgen receptor [4],> 30 µM
C1COC(NC(C2CC2)C2CC2)=N1 [RILMENIDINE],AC50,Progesterone receptor,> 30 µM
Nc1nc2ccc(OC(F)(F)F)cc2s1 [RILUZOLE],AC50,[1],> 30 µM
O=C1NCCN1CCN1CCC(c2cn(-c3ccc(F)cc3)c3ccc(Cl)cc23)CC1 [SERTINDOLE],AC50,Androgen receptor [2],> 30 µM
same,AC50,Androgen receptor [3],> 30 µM
Cc1c(C(=O)Nc2ccc(N3C[C@@H](C)O[C@@H](C)C3)nc2)cccc1-c1ccc(OC(F)(F)F)cc1 [SONIDEGIB],AC50,Progesterone receptor,19.7 µM
same,AC50,Androgen receptor [4],> 30 µM
same,AC50,B1 bradykinin receptor,> 30 µM
same,AC50,[5],> 30 µM
CN[C@@H]1[C@H](O)[C@H](NC)[C@H]2O[C@@]3(O)C(=O)C[C@@H](C)O[C@H]3O[C@@H]2[C@H]1O [SPECTINOMYCIN],AC50,Androgen receptor [4],> 10 µM
COc1ccc(C(=O)N2CCN(c3ccc4c(c3)CCC(=O)N4)CC2)cc1OC [VESNARINONE],AC50,Androgen receptor [2],2.5 µM
same,AC50,[1],> 30 µM
CN1CCN(C(=O)OC2c3nccnc3C(=O)N2c2ccc(Cl)cn2)CC1 (centres undefined) [ZOPICLONE],AC50,Progesterone receptor,> 30 µM
same,AC50,B1 bradykinin receptor,> 30 µM
same,AC50,[5],> 30 µM
